Measured values taken from patent US20100183524A1, “ANTIOXIDANT COMPOSITIONS FOR SOFT ORAL TISSUE AND METHODS OF FORMULATION AND USE THEREOF” (Perio Sciences, LLC, priority 2008, published 2010).

What was measured:
[1] = system: Human periodontal ligament fibroblasts (HPDL)
Procedure: Culture conditions as described in HGF were similarly employed in the HPDL cells. In this experiment, 5×10^3 cells in 100 μL of culture medium were seeded into each well of a 96-well plate. […] Bioactive antioxidant mixtures tested included: resveratrol, ferulic acid and tetrahydrocurcuminoids (RFT), phloretin, ferulic acid and resveratrol (PFR), phloretin, ferulic acid and tetrahydrocurcuminoids (PFT).
Cells were washed with PBS and treated with antioxidant mixtures (RFT, PFR, PFT) in 0.1% FBS medium (DMEM and 1% antimycotic/antiobiotic) for 24 hours.
Different ethanol concentrations (15%, 10% and 5%) were used for dose response experiments for 30 or 60 minutes.
After pretreatment with ethanol or H2O2, the cells were rinsed and treated with 10^−5M (0.4% wt/v) antioxidant mixture (RFT, PFR, PFT) for 24 hrs.
(§3) Cell viability and survival were assessed by MTS colorimetric assay (3-[4,5-dimethylthiazol-2-yl]-5-[3-carboxymethoxyphenyl]-2-[4-sulfophenyl]-2H-tetrazolium) (Promega Corp., Madison, Wis.). This quantitative assay detects living but not dead cells. […] The absorbance at 490 nm was measured using a SpectraMax microplate spectrophotometer (Molecular Devices, Sunnyvale, Calif.). […]
a. Percent viable cells were expressed as; A/B, where A is absorbance at 490 nm with antioxidant compounds (RFT, PFR, PFT) and H2O2 or Ethanol pre-treatments; B absorbance at 490 nm with 0.1% FBS (control). […]

[2] = system: human gingival fibroblasts (HGF)
Procedure: Human gingival tissues from healthy nonsmokers were collected with institutional review board approval and tissues were cultured in high glucose Dulbecco's modified eagles medium (DMEM), 10% FBS, and 1% antimycotic/antiobiotic. Tissues were incubated at 37° C. in a humidified gas mixture (5% CO2 and 95% air) and medium was changed every 24 hours. Human gingival fibroblasts (HGF) grew from the tissue after a week. Cells were passaged using 0.25% trypsin solutions and plated in new tissue culture flasks when confluent. Passages 3-12 were used in all of the experiments.
In this experiment, 5×10^3 cells in 100 μL of culture medium were seeded into each well of a 96-well plate. […]
as §3
Percent viable cells were expressed as; A/B, where A is absorbance at 490 nm with antioxidant compounds (RFT, PFR, PFT) and H2O2 or Ethanol pre-treatments; B absorbance at 490 nm with 0.1% FBS (control). […]

Rac-GTP in HPDL cells = experiment: Rac-GTP immunofluorescence in scratch wound assay, nicotine-exposed HPDL; assay type: cell-based, human; details: nicotine 6 mM, 8 mM, 10 mM
Procedure: (§1) Both cell types tested (HGF and HPDL) were plated at 5×10^4 cells/well in a Lab-Tek II chamber glass slide with cover (Nalge Nunc International, Rochester, N.Y.). Approximately 400 μl of cell medium suspension was added to each well. The cells were grown overnight until confluent. Cells were pretreated with nicotine (10 mM, 8 mM and 6 mM) for two hours and then treated with antioxidants (resveratrol, trans=ferulic acid, tetrahydrocurcuminoids CG™, or phloretin) in double or triple combinations at 0.4% w/v (10^−5M). Two hours later, a scratch wound assay was performed using a sterile 10 μl pipet tip.
(§2) The cells were fixed with 4% paraformaldehyde for 30 minutes and then washed with sterile phosphate buffered saline (PBS) three times. […] The secondary antibody (1:500 Alexa Fluor® 488 goat anti-mouse IgG (H+L) (Molecular Probes, Eugene, Oreg.) was incubated for two hours at room temperature. The stained cells were washed with PBS three times. The Lab-Tek II wells were removed and the cells were cover-slipped with slowfade mounting medium. Analysis of the levels of Rac-GTP at the leading edge of the wound were determined using confocal microscopy. All treatments were recorded with the same settings on a Leica SP2 microscope. All images were taken from projected z stacks of the immunolabeled cells. Intensity of Rac-GTP immunofluorescence was determined using Nikon Elements software. […]

Rac-GTP in HGF cells = experiment: Rac-GTP immunofluorescence in scratch wound assay, nicotine-exposed HGF; assay type: cell-based, human
Procedure: as §1, §2

[3] = system: human gingival fibroblast (HGF) cells; details: 6, 8 or 10 mM nicotine, two hours
Procedure: Cells were then treated with a solution containing either the three antioxidants described above, or a 1:1 ratio of only two antioxidants, or only a single antioxidant. Cell migration was recorded using BioStation Live Cell Imaging (Nikon Instruments, Melvile, N.Y.) every hour for ten hours, and data presented here is for 1 hour, 5 hours, or 10 hours.

`OO` [Formulation H2O2, hydrogen peroxide] was tested, and the “viable cells (MTS) after H2O2” value [1] was “dose-dependent decrease of viable cells” and the “viable cells (MTS) after H2O2” value [2] was “dose-dependent decrease of viable cells”.
For ethyl alcohol [Ethanol], the “cell viability (MTS) after ethanol” value [1] was “dose dependent effect on cell viability” and the “cell viability (MTS) after ethanol” value [2] was “dose dependent effect on cell viability”.
For `CN1CCCC1c1cccnc1` (centres unmarked) [nicotine], the “effect of nicotine on Rac-GTP expression” value (Rac-GTP in HPDL cells) was “dose dependent decrease”, the “effect of nicotine on Rac-GTP expression” value (Rac-GTP in HGF cells; nicotine 6 mM, 8 mM, 10 mM) was “dose dependent decrease” and the “effect of nicotine on cell migration” value [3] was “deleterious effect on cell migration that increased with exposure to more concentrated nicotine”.
In the case of `COc1cc(/C=C/C(=O)O)ccc1O` [trans-ferulic acid], the “increase of Rac-GTP expression over nicotine treated cells (6 mM Nic), mean pixel intensity” value (Rac-GTP in HGF cells; 6 mM nicotine two hours, then antioxidants 10^−5 M, leading edge of the wound) is reported as 35%.
